Measurements from patent US6258829A, “Cycloalka[b]pyridine-3-carbonylguanidine derivatives, process for producing the same, and drugs containing the same” (priority 1997, dated 2001).
Counter-ions that a name gives are not always drawn. Like-named read-outs stand apart in the source and are kept apart here.

What was measured:
[1] = target: T1, Na^+ /H^+ exchange transport (rat platelets) (Rattus norvegicus, UniProt P26431); assay: Inhibition studies on Na^+ /H^+ exchange transport: swelling of rat platelets induced by sodium propionate; type: cell-based, rat (Wistar); details: rat platelet swelling, sodium propionate buffer pH 6.7, 20 seconds; 300 μM amiloride = 100% inhibition; read-out: IC5O value (inhibitory actions of test compounds on Na^+ /H^+ exchange transport)
T1 construct: the thus collected supernatant was used as platelet rich plasma; endogenous in cells; host or cells: platelets (platelet rich plasma) of Wistar rat
T1 sequence (P26431 whole entry): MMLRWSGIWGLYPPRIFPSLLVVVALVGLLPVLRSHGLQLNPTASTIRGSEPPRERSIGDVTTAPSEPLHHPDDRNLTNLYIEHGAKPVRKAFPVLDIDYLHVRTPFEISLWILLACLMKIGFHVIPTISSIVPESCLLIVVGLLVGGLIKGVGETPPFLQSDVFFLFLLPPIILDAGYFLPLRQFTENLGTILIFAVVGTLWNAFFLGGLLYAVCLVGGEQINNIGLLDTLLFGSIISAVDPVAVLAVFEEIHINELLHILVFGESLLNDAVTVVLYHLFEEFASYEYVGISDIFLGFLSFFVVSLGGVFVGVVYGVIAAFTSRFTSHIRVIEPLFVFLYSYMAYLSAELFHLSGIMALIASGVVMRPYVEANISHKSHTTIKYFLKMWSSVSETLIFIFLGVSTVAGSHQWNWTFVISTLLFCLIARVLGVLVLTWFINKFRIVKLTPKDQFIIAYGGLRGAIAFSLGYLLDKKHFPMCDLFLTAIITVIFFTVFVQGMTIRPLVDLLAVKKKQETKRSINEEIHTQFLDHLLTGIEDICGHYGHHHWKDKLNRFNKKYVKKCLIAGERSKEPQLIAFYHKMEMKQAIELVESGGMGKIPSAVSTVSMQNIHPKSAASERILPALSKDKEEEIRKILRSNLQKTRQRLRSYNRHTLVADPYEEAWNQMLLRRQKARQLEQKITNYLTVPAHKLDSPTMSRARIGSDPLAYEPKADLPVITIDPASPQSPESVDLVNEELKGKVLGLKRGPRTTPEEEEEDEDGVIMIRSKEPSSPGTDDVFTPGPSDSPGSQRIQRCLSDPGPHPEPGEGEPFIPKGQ
Method: The Na^+ /H^+ exchange transport inhibitory activity was measured in accordance with the method of Scholz et al. [Br. J. Pharmacol., 109, 562 (1993)], using the swelling of rat platelets induced by sodium propionate as an index.
Under ether anesthesia, blood sample (8 ml) was collected from the abdominal aorta of Wistar rat and mixed with 1 ml of acid citrate dextrose as an anticoagulant. The resulting mixture was immediately centrifuged at 90×g for 10 minutes, and the thus collected supernatant was used as platelet rich plasma. Next, the thus prepared platelet rich plasma (10×10^6 platelets/50 μl) was added to 250 μl of 140 mM sodium propionate buffer (pH 6.7, 1% dimethyl sulfoxide in final concentration) containing each test compound dissolved in dimethyl sulfoxide, and the decrease in absorbance caused by the swelling of platelets was periodically measured using Hema-Tracer (manufactured by Nk).
The decreased absorbance ratio 20 seconds after the addition of platelet rich plasma was measured as the Na^+ /H^+ exchange activity, and the inhibitory activity of each test compound was expressed as relative activity when the action of 300 μM amiloride was defined as 100% inhibition.
In this case, each test result was evaluated from 50% inhibition concentration (IC50 value) by using probit methods.

[2] = test system: Na^+ /H^+ exchange transport; details: background statement, Circulation, 79, 1257 (1989); cited from earlier work
[3] = background statement; cited from earlier work
[4] = test system: male SD rats; design: species or system rat (SD); details: rat, in vivo, iv, 10 mg/kg
[5] = test system: male SD rats; design: species or system rat (SD); details: rat, in vivo, iv, 100 mg/kg

SMILES	IC50 [1] [nM]	other results
Cc1nc2c(cc1C(=O)N=C(N)N)CC(C)CC2 (stereo not drawn) [Compound B, 2,6-Dimethyl-5,6,7,8-tetrahydrocyclohexa[b]pyridine-3-carbonylguanidine]	≤ 99	–
Cc1nc2c(cc1C(=O)N=C(N)N)CCCCC2C (stereo not drawn) [Compound E, 2,9-Dimethyl-6,7,8,9-tetrahydro-5H-cyclohepta[b]pyridine-3-carbonylguanidine]	≤ 99	–
Cc1nc2c(cc1C(=O)N=C(N)N)CCCC=C2 [Compound K, 2-Methyl-6,7-dihydro-5H-cyclohepta[b]pyridine-3-carbonylguanidine]	≤ 99	–
N=C(N)NC(=O)c1nc(Cl)c(N)nc1N [amiloride]	–	Na^+ /H^+ exchange transport inhibitory action [2]: has a Na^+ /H^+ exchange transport inhibitory action; accompanying actions [3]: accompanies hypotensive action and salt excretion action; anti-arrhythmic action [3]: weak
Cc1nc2c(cc1C(=O)N=C(N)N)CCCC=C2 [maleic acid salt of the compound (K), 2-Methyl-6,7-dihydro-5H-cyclohepta[b]pyridine-3-carbonylguanidine maleate]	–	death cases [4]: no death cases were found; toxic changes attributable to the compound (K) [4]: no toxic changes attributable to the compound (K) were observed; death cases [5]: no death cases were found; toxic changes attributable to the compound (K) [5]: no toxic changes attributable to the compound (K) were observed

The next lines start with results.

IC50 [1] [nM]	SMILES	other results
100 to 990	Cc1nc2c(cc1C(=O)N=C(N)N)CCCC2O (stereo not drawn) [Compound A, 8-Hydroxy-2-methyl-5,6,7,8-tetrahydrocyclohexa[b]pyridine-3-carbonylguanidine]	–
≤ 99	CCc1nc2c(cc1C(=O)N=C(N)N)CCCCC2 [Compound C, 2-Ethyl-6,7,8,9-tetrahydro-5H-cyclohepta[b]pyridine-3-carbonylguanidine]	–
100 to 990	Cc1nc2c(cc1C(=O)N=C(N)N)C(O)CCCC2 (stereo not drawn) [Compound D, 5-Hydroxy-2-methyl-6,7,8,9-tetrahydro-5H-cyclohepta[b]pyridine-3-carbonylguanidine]	–
≤ 99	COC1CCCCc2cc(C(=O)N=C(N)N)c(C)nc21 (stereo not drawn) [Compound F, 9-Methoxy-2-methyl-6,7,8,9-tetrahydro-5H-cyclohepta[b]pyridine-3-carbonylguanidine]	–
100 to 990	NC(N)=NC(=O)c1cc2c(nc1C(F)(F)F)CCCCC2 [Compound G, 2-Trifluoromethyl-6,7,8,9-tetrahydro-5H-cyclohepta[b]pyridine-3-carbonylguanidine]	–
≤ 99	NC(N)=NC(=O)c1cc2c(nc1Cl)CCCCC2 [Compound H, 2-Chloro-6,7,8,9-tetrahydro-5H-cyclohepta[b]pyridine-3-carbonylguanidine]	–
≥ 1000	COc1nc2c(cc1C(=O)N=C(N)N)CCCCC2 [Compound I, 2-Methoxy-6,7,8,9-tetrahydro-5H-cyclohepta[b]pyridine-3-carbonylguanidine]	–
≥ 1000	NC(N)=NC(=O)c1cc2c(nc1-c1cccnc1)CCCCC2 [Compound J, 2-(3-Pyridyl)-6,7,8,9-tetrahydro-5H-cyclohepta[b]pyridine-3-carbonylguanidine]	–
